Measurements taken from article PMC7434893 (British Journal of Cancer, 2020).
pIC50: −log10 of the molar value. In brackets after ≈: the same amount, converted by molar mass.

How the values were obtained:
sIL-2Rα/CD25 = experiment: Serum biomarker analysis, sIL-2Rα; assay type: in vivo, human; conditions: from 48 h onwards, all dose groups
Procedure: Two pre-dose, multiple post-dose and off-treatment time points were included. Serum samples were tested for concentrations of soluble vascular endothelial growth factor receptor (VEGFR)2, VEGFR3 and soluble interleukin-2 receptor α (sIL-2Rα/CD25), using the bead-based Human Soluble Cytokine Receptor Panel assay kit. The two baseline samples (days −3 and −2 prior to dosing) were averaged, and the mean was used to calculate percent change at each of the post-dosing time points.

MDA-MB-453 = experiment: 8-day growth inhibition; assay type: cell-based; conditions: Breast, MDA-MB-453, 8-day assay
NCI-H1694 = experiment: 8-day growth inhibition; assay type: cell-based; conditions: SCLC, NCI-H1694, 8-day assay
U937 = experiment: 8-day growth inhibition; assay type: cell-based; conditions: Histiocytic lymphoma - monocytic, U937, 8-day assay
NCI-H446 = experiment: 8-day growth inhibition; assay type: cell-based; conditions: SCLC, NCI-H446, 8-day assay
[1] = Plasma and urine pharmacokinetics, dose-escalation cohorts; assay type: in vivo, human; conditions: for AUC(0-inf) / AUC(0–24) / Ae, amount of drug dose excreted in urine / CLR / Cav,ss / Cmax / fe, fraction of dose excreted in urine / t1/2 / AUC(0-t): mean (SD); for tmax: median (min, max)
Procedure: Blood samples were also collected immediately before the dose on day 7 of cycle 1, days 1 and 15 of cycle 2 and on day 1 of cycle 3, and beyond. All urine produced during the time intervals pre-dose, 0–2 h, 2–4 h, 4–10 h and 10–24 h following the single dose on day –2, and after multiple doses on cycle 1, day 15, was collected.

PARP = experiment: Sigmoidal inhibitory indirect-response PK/PD model of PAR formation; assay type: in vivo, human; conditions: model estimate
Procedure: The PD measurement utilised in the PK/PD model was the percentage inhibition of the formation of PAR, a marker for PARP activity,[19] which was calculated as % inhibition = […], where baseline was defined as the PAR response at time 0 on day –2.
The model parameters from the PK/PD analysis were then used to simulate the expected PAR responses of additional dosing regimens of E7449. All PK/PD modelling and subsequent response simulations were performed using Phoenix WinNonlin®, version 7.

JVM-2 = experiment: 8-day growth inhibition; assay type: cell-based; conditions: MCL, JVM-2, 8-day assay
ECC-1 = experiment: 8-day growth inhibition; assay type: cell-based; conditions: Endometrial, ECC-1, 8-day assay
HCC1806 = experiment: 8-day growth inhibition; assay type: cell-based; conditions: Breast, HCC1806, 8-day assay
PARP1 = conditions: read-out: IC50, enzymatic activity of PARP1; cited from earlier work
[2] = 50 mg once daily, cycle 1 day 15, steady state
[3] = 100 mg once daily, cycle 1 day 15, steady state
[4] = 200 mg once daily, cycle 1 day 15, steady state
[5] = 400 mg once daily, cycle 1 day 15, steady state
[6] = 600 mg once daily, cycle 1 day 15, steady state
[7] = 800 mg once daily, cycle 1 day 15, steady state

## O=c1[nH]nc2c3c(cccc13)N=C(CN1Cc3ccccc3C1)N2 [E7449]
sIL-2Rα/CD25
  sIL-2Rα change above baseline: up to 150%
MDA-MB-453
  pIC50: 5.21
NCI-H1694
  pIC50: 5.61
U937
  pIC50: 5.57
NCI-H446
  pIC50: 6.21
[1]; [2]
  AUC(0-inf): 634 (n = 1) ng·h/mL
  AUC(0–24): 714 (193) ng·h/mL
  Ae, amount of drug dose excreted in urine: 0.19 (0.00) (n = 2) mg
  CLR: 0.3 (0.01) (n = 2) L/h
  Cav,ss: 29.7 (8.03) ng/mL
  Cmax: 264 (227) ng/mL
  fe, fraction of dose excreted in urine: 0.39 (0.01) (n = 2) %
  t1/2: 9.04 (n = 1) h
  tmax: 1.00 (0.5, 2.00) h
[1]; 50 mg, day –2 single dose
  AUC(0-inf): 770 (n = 1) ng·h/mL
  AUC(0-t): 603 (213) ng·h/mL
  AUC(0–24): 768 (n = 1) ng·h/mL
  Ae, amount of drug dose excreted in urine: 0.11 (0.06) (n = 2) mg
  Cmax: 265 (99.8) ng/mL
  fe, fraction of dose excreted in urine: 0.22 (0.13) (n = 2) %
  t1/2: 3.42 (n = 1) h
  tmax: 2.00 (0.58, 2.03) h
[1]; [3]
  AUC(0-inf): 1150 (266) ng·h/mL
  AUC(0–24): 1100 (244) ng·h/mL
  Ae, amount of drug dose excreted in urine: 0.70 (n = 1) mg
  CLR: 0.5 (n = 1) L/h
  Cav,ss: 45.8 (10.2) ng/mL
  Cmax: 404 (175) ng/mL
  fe, fraction of dose excreted in urine: 0.70 (n = 1) %
  t1/2: 8.92 (2.50) h
  tmax: 3.00 (1.00, 4.00) h
[1]; 100 mg, day –2 single dose
  AUC(0-inf): 895 (99.8) ng·h/mL
  AUC(0-t): 879 (104) ng·h/mL
  AUC(0–24): 879 (104) ng·h/mL
  Ae, amount of drug dose excreted in urine: 0.47 (n = 1) mg
  CLR: 0.5 (n = 1) L/h
  Cmax: 284 (112) ng/mL
  fe, fraction of dose excreted in urine: 0.47 (n = 1) %
  t1/2: 6.35 (3.36) h
  tmax: 2.05 (1.08, 3.00) h
[1]; [4]
  AUC(0-inf): 2670 (1510) (n = 2) ng·h/mL
  AUC(0–24): 3690 (2230) ng·h/mL
  Ae, amount of drug dose excreted in urine: 1.11 (0.33) mg
  CLR: 0.5 (0.4) L/h
  Cav,ss: 154 (93.1) ng/mL
  Cmax: 1430 (1080) ng/mL
  fe, fraction of dose excreted in urine: 0.55 (0.17) %
  t1/2: 9.19 (4.83) (n = 2) h
  tmax: 1.00 (1.00, 2.00) h
[1]; 200 mg, day –2 single dose
  AUC(0-inf): 3320 (1790) (n = 2) ng·h/mL
  AUC(0-t): 3780 (1180) ng·h/mL
  AUC(0–24): 3670 (1170) ng·h/mL
  Ae, amount of drug dose excreted in urine: 0.70 (0.60) (n = 3) mg
  CLR: 0.2 (0.15) (n = 3) L/h
  Cmax: 996 (676) ng/mL
  fe, fraction of dose excreted in urine: 0.34 (0.29) (n = 3) %
  t1/2: 7.08 (1.16) (n = 2) h
  tmax: 3.10 (1.03, 4.18) h
[1]; [5]
  AUC(0-inf): 3240 (820) (n = 2) ng·h/mL
  AUC(0–24): 4730 (2730) ng·h/mL
  Ae, amount of drug dose excreted in urine: 2.05 (1.09) mg
  CLR: 0.4 (0.14) L/h
  Cav,ss: 197 (114) ng/mL
  Cmax: 1130 (1030) ng/mL
  fe, fraction of dose excreted in urine: 0.51 (0.27) %
  t1/2: 4.16 (1.72) (n = 2) h
  tmax: 4.00 (0.5, 4.00) h
[1]; 400 mg, day –2 single dose
  AUC(0-inf): 4800 (3000) (n = 3) ng·h/mL
  AUC(0-t): 4800 (2450) ng·h/mL
  AUC(0–24): 4690 (2400) ng·h/mL
  Ae, amount of drug dose excreted in urine: 2.77 (1.82) mg
  CLR: 0.6 (0.34) L/h
  Cmax: 999 (619) ng/mL
  fe, fraction of dose excreted in urine: 0.69 (0.45) %
  t1/2: 8.62 (0.54) (n = 3) h
  tmax: 2.04 (1.03, 4.05) h
[1]; [6]
  AUC(0-inf): 9660 (4550) (n = 4) ng·h/mL
  AUC(0–24): 7900 (4730) ng·h/mL
  Ae, amount of drug dose excreted in urine: 2.25 (1.28) mg
  CLR: 0.3 (0.12) L/h
  Cav,ss: 329 (198) ng/mL
  Cmax: 2230 (1570) ng/mL
  fe, fraction of dose excreted in urine: 0.38 (0.21) %
  t1/2: 5.05 (1.76) (n = 4) h
  tmax: 1.14 (0.50, 4.05) h
[1]; 600 mg, day –2 single dose
  AUC(0-inf): 10,700 (5040) (n = 4) ng·h/mL
  AUC(0-t): 8120 (4990) ng·h/mL
  AUC(0–24): 7930 (4990) ng·h/mL
  Ae, amount of drug dose excreted in urine: 2.90 (0.51) mg
  CLR: 5.0 (13.0) L/h
  Cmax: 2250 (1330) ng/mL
  fe, fraction of dose excreted in urine: 0.48 (0.09) %
  t1/2: 7.17 (2.98) (n = 4) h
  tmax: 2.12 (0.50, 24.3) h
[1]; [7]
  AUC(0-inf): 12,000 (5910) (n = 4) ng·h/mL
  AUC(0–24): 12,400 (5230) ng·h/mL
  Ae, amount of drug dose excreted in urine: 4.70 (2.91) mg
  CLR: 0.5 (0.34) L/h
  Cav,ss: 516 (218) ng/mL
  Cmax: 4120 (2160) ng/mL
  fe, fraction of dose excreted in urine: 0.68 (0.47) %
  t1/2: 6.44 (1.56) (n = 4) h
  tmax: 0.50 (0.0, 1.97) h
[1]; 800 mg, day –2 single dose
  AUC(0-inf): 12,900 (3350) (n = 4) ng·h/mL
  AUC(0-t): 11,500 (3370) ng·h/mL
  AUC(0–24): 11,300 (3230) ng·h/mL
  Ae, amount of drug dose excreted in urine: 4.00 (1.73) mg
  CLR: 0.4 (0.12) L/h
  Cmax: 4430 (2470) ng/mL
  fe, fraction of dose excreted in urine: 0.50 (0.22) %
  t1/2: 9.45 (2.42) (n = 4) h
  tmax: 0.79 (0.50, 2.00) h
[1]; across doses
  Drug dose excreted unchanged in urine: Less than 1.5%
  Elimination half-life, t1/2: approximately 8 h
PARP
  kout: 0.52 h⁻¹
PARP; plasma concentration, inhibition of PAR formation in PBMCs
  EC50: 0.11 µg/mL (≈ 0.347 µM)
PARP; rate of formation of PAR
  kin: 35.5 h⁻¹
JVM-2
  pIC50: 4.85
ECC-1
  pIC50: 6.17
HCC1806
  pIC50: 5.74
PARP1
  pIC50: 9.00
